Target: cAMP and cAMP-inhibited cGMP 3',5'-cyclic phosphodiesterase 10A (Homo sapiens, UniProt Q9Y233)
Test: PDE10A assay
Method in brief: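 Scintillation proximity readout of [3H]cGMP hydrolysis (50 nM final substrate, 15 min) by 2 ng/well human PDE10A after 15 min compound preincubation at RT, pH 7.5 with MgCl2. Four-parameter logistic fit gave IC50, reported as pIC50.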

Row | IC50 [nM] | SMILES
1 | 29 | COC(=O)c1cccc(NC(=O)c2nc(C3CC3)cnc2Nc2cncnc2)n1 [Roche-Dataset for PDE10A, Compound 1037]
2 | 1590 | O=C(NCC1CCC1)c1nc(C2CC2)cnc1Nc1cncnc1 [Roche-Dataset for PDE10A, Compound 1038]
3 | 10000 | O=C(c1nc(C2CC2)cnc1Nc1cncnc1)N1CCN(C2CCCC2)CC1 [Roche-Dataset for PDE10A, Compound 1039]
4 | 10000 | O=C(c1nc(C2CC2)cnc1Nc1cncnc1)N1CCN(C2CCCCC2)CC1 [Roche-Dataset for PDE10A, Compound 1040]
5 | 965 | O=C(NC1CCCC1)c1nc(C2CC2)cnc1Nc1cncnc1 [Roche-Dataset for PDE10A, Compound 1041]
6 | 854 | CC(C)c1cc(NC(=O)c2c(C(=O)N3CCC3)cnn2C)n(C2CCCC2)n1 [Roche-Dataset for PDE10A, Compound 1042]
7 | 396 | Cn1ncc(C(=O)N2CCC2)c1C(=O)Nc1ccn(-c2ccccc2F)n1 [Roche-Dataset for PDE10A, Compound 1043]
8 | 10000 | O=C(c1nc(C2CC2)cnc1Nc1cncnc1)N1CCC(O)(Cc2ccccc2)CC1 [Roche-Dataset for PDE10A, Compound 1044]
9 | 197 | O=C(NC1CCN(c2ccccn2)CC1)c1nc(C2CC2)ccc1Nc1cncnc1 [Roche-Dataset for PDE10A, Compound 1045]
10 | 649 | Cc1cc(NC(=O)c2c(C(=O)N3CCC3)cnn2C)n(C2CCCC2)n1 [Roche-Dataset for PDE10A, Compound 1046]
11 | 432 | COc1ccc2c(=O)n(C)c3cnc(-c4ccccc4Cl)n3c2c1 [Roche-Dataset for PDE10A, Compound 1048]
12 | 136 | Cc1cc(NC(=O)c2c(C(=O)N3CCC3)cnn2C)nn1CC(F)F [Roche-Dataset for PDE10A, Compound 1050]
13 | 43 | Cn1ncc(C(=O)N2CCC2)c1C(=O)Nc1ccn(-c2cc(Cl)cc(Cl)c2)n1 [Roche-Dataset for PDE10A, Compound 1051]
14 | 367 | O=C(N[C@H]1CCN(c2ccccn2)C1)c1nc(C2CC2)ccc1Nc1cncnc1 [Roche-Dataset for PDE10A, Compound 1052]
15 | 14 | CNC(=O)c1c(NC(=O)c2nc(C3CC3)ccc2Nc2cncnc2)cnn1C [Roche-Dataset for PDE10A, Compound 1053]
16 | 1480 | COc1ccc(NC(=O)c2nc(C3CC3)cnc2Nc2cncnc2)nn1 [Roche-Dataset for PDE10A, Compound 1054]
17 | 258 | CC(C)Cn1ccc(NC(=O)c2c(C(=O)N3CCC3)cnn2C)n1 [Roche-Dataset for PDE10A, Compound 1055]
18 | 594 | CCn1ncc(NC(=O)c2c(C(=O)N3CCC3)cnn2C)c1C(=O)NCC(C)C [Roche-Dataset for PDE10A, Compound 1057]
19 | 1790 | O=C(NC1CCOCC1)c1nc(C2CC2)cnc1Nc1cncnc1 [Roche-Dataset for PDE10A, Compound 1059]
20 | 1630 | CS(=O)(=O)CCNC(=O)c1nc(C2CC2)cnc1Nc1cncnc1 [Roche-Dataset for PDE10A, Compound 1061]
21 | 1450 | CN(C(=O)c1c(C(=O)N2CCC2)cnn1C)c1ccn2nc(-c3ccccc3)nc2c1 [Roche-Dataset for PDE10A, Compound 1062]
22 | 437 | Cc1cc(NC(=O)c2c(C(=O)N3CCC3)cnn2C)nn1C1CCCC1 [Roche-Dataset for PDE10A, Compound 1063]

Row | IC50 [nM] | SMILES
23 | 242 | Cn1ncc(C(=O)N2CCC2)c1C(=O)Nc1ccn(C2CCCCC2)n1 [Roche-Dataset for PDE10A, Compound 1064]
24 | 6130 | Cc1ncc(C)n2nc(/C=C/c3nc(N4C[C@@H]5C[C@H]6CN(C(=O)OC(C)(C)C)C[C@]65C4)nn3C)nc12 [Roche-Dataset for PDE10A, Compound 1066]
25 | 327 | COCCn1ccc(NC(=O)c2c(C(=O)N3CCC3)cnn2C)n1 [Roche-Dataset for PDE10A, Compound 1067]
26 | 207 | Cc1cc(NC(=O)c2c(C(=O)N3CCC3)cnn2C)cc(NC(=O)OC(C)(C)C)n1 [Roche-Dataset for PDE10A, Compound 1068]
27 | 462 | CC(C)CNC(=O)c1c(NC(=O)c2c(C(=O)N3CCC3)cnn2C)cnn1C [Roche-Dataset for PDE10A, Compound 1069]
28 | 10000 | CC(C)c1cc(NC(=O)c2c(C(=O)N3CCC3)cnn2C)[nH]n1 [Roche-Dataset for PDE10A, Compound 1070]
29 | 27 | CS(=O)(=O)c1ccccc1NC(=O)c1nc(C2CC2)ccc1Nc1cncnc1 [Roche-Dataset for PDE10A, Compound 1071]
30 | 2860 | CS(=O)(=O)N1CCC(NC(=O)c2nc(C3CC3)cnc2Nc2cncnc2)CC1 [Roche-Dataset for PDE10A, Compound 1072]
31 | 276 | Cc1cc(C)n2nc(CCc3nc4c(Cl)cc(Cl)c(C)n4n3)nc2n1 [Roche-Dataset for PDE10A, Compound 1073]
32 | 863 | O=C(NC1(c2ccc(Cl)cc2)CCC1)c1nc(C2CC2)cnc1Nc1cncnc1 [Roche-Dataset for PDE10A, Compound 1074]
33 | 329 | Cn1ncc(C(=O)N2CCC2)c1C(=O)Nc1ccn(CC2CC2)n1 [Roche-Dataset for PDE10A, Compound 1075]
34 | 1920 | CCNC(=O)c1c(NC(=O)c2c(C(=O)N3CCC3)cnn2C)cnn1CC [Roche-Dataset for PDE10A, Compound 1076]
35 | 131 | Cc1cc(NC(=O)c2c(C(=O)N3CCC3)cnn2C)cc(N)n1 [Roche-Dataset for PDE10A, Compound 1077]
36 | 10000 | Cn1ncc(C(=O)N2CCC2)c1C(=O)Nc1cc(C2CCC2)n[nH]1 [Roche-Dataset for PDE10A, Compound 1078]
37 | 551 | Cn1ncc(C(=O)N2CCC2)c1C(=O)Nc1ccn(CCF)n1 [Roche-Dataset for PDE10A, Compound 1082]
38 | 288 | O=C(Nc1ccnnc1)c1nc(C2CC2)cnc1Nc1cncnc1 [Roche-Dataset for PDE10A, Compound 1083]
39 | 25 | CC(=O)Nc1cccc(NC(=O)c2nc(C3CC3)cnc2Nc2cncnc2)n1 [Roche-Dataset for PDE10A, Compound 1084]
40 | 1030 | O=C(NCc1ncco1)c1nc(C2CC2)cnc1Nc1cncnc1 [Roche-Dataset for PDE10A, Compound 1086]
41 | 853 | Cn1ncc(C(=O)N2CCC2)c1C(=O)Nc1cc(C2CCC2)n(C2CCCC2)n1 [Roche-Dataset for PDE10A, Compound 1088]
42 | 1860 | O=C(NCc1cocn1)c1nc(C2CC2)cnc1Nc1cncnc1 [Roche-Dataset for PDE10A, Compound 1089]
43 | 146 | O=C(Nc1cnc(Cl)cn1)c1nc(C2CC2)ccc1Nc1cncnc1 [Roche-Dataset for PDE10A, Compound 1090]
44 | 2980 | CC1(CNC(=O)c2nc(C3CC3)cnc2Nc2cncnc2)COC1 [Roche-Dataset for PDE10A, Compound 1092]

Row | IC50 [nM] | SMILES
45 | 496 | Cn1ncc(C(=O)N2CCC2)c1C(=O)Nc1ccn(C2CCC2)n1 [Roche-Dataset for PDE10A, Compound 1093]
46 | 785 | Cn1ncc(C(=O)N2CCC2)c1C(=O)Nc1ccn(-c2ccccn2)n1 [Roche-Dataset for PDE10A, Compound 1095]
47 | 10000 | O=C(c1nc(C2CC2)cnc1Nc1cncnc1)N1CCC(N2CCOCC2)CC1 [Roche-Dataset for PDE10A, Compound 1098]
48 | 7810 | CNC(=O)c1c(NC(=O)c2nc(C)c(C)nc2Nc2cncnc2)cnn1C [Roche-Dataset for PDE10A, Compound 1099]
49 | 761 | Cn1ncc(C(=O)N2CCC2)c1C(=O)Nc1ccn(C(F)F)n1 [Roche-Dataset for PDE10A, Compound 1100]
50 | 783 | Cn1ncc(C(=O)N2CCC2)c1C(=O)Nc1cc(C2CCCCC2)n(C2CCCC2)n1 [Roche-Dataset for PDE10A, Compound 1101]
51 | 124 | Cn1cc(-c2ccncc2)c(C(=O)Nc2cc(-c3ccccn3)nn2C)n1 [Roche-Dataset for PDE10A, Compound 1102]
52 | 10000 | O=C(c1ccccc1)N1CCN(C(=O)c2nc(C3CC3)cnc2Nc2cncnc2)CC1 [Roche-Dataset for PDE10A, Compound 1104]
53 | 271 | O=C(Nc1cccnn1)c1nc(C2CC2)cnc1Nc1cncnc1 [Roche-Dataset for PDE10A, Compound 1105]
54 | 36 | CCOC(=O)c1nnsc1NC(=O)c1nc(C2CC2)ccc1Nc1cncnc1 [Roche-Dataset for PDE10A, Compound 1107]
55 | 672 | Cn1ncc(C(=O)N2CCC2)c1C(=O)Nc1ccn(C(C)(C)C)n1 [Roche-Dataset for PDE10A, Compound 1109]
56 | 2520 | COc1ccc2c(=O)n(C)c3c(C)nc(C)n3c2c1 [Roche-Dataset for PDE10A, Compound 1111]
57 | 325 | Cn1ncc(C(=O)N2CCC2)c1C(=O)Nc1n[nH]cc1C#N [Roche-Dataset for PDE10A, Compound 1112]
58 | 3150 | Cn1ncc(C(=O)N2CCC2)c1C(=O)Nc1ccn(CCC#N)n1 [Roche-Dataset for PDE10A, Compound 1114]
59 | 32 | Cc1ncc(C)n2nc(/C=C/c3nc(N4CC[C@@H](C)[C@H]4C)nn3C)nc12 [Roche-Dataset for PDE10A, Compound 1115]
60 | 404 | CCCn1ccc(NC(=O)c2c(C(=O)N3CCC3)cnn2C)n1 [Roche-Dataset for PDE10A, Compound 1116]
61 | 1990 | CCOC(=O)c1cnn(C)c1C(=O)Nc1ccc2nc(N3CCOCC3)nn2c1 [Roche-Dataset for PDE10A, Compound 1117]
62 | 1830 | CC(C)n1ccc(NC(=O)c2c(C(=O)N3CCC3)cnn2C)n1 [Roche-Dataset for PDE10A, Compound 1118]
63 | 402 | Cc1ncc(C)n2nc(/C=C/c3nc(N4CCN(C(=O)OC(C)(C)C)CC4)nn3C)nc12 [Roche-Dataset for PDE10A, Compound 1119]
64 | 3130 | CCNC(=O)c1c(NC(=O)c2c(C(=O)N3CCC3)cnn2C)cnn1C [Roche-Dataset for PDE10A, Compound 1120]
